Starred links: 1 amine or outer side, 2 acyl side, 3 side chain; linkers in the order of their positions; H or OH if unused. Non-standard residues stand in square brackets, D forms with d. Residues, ends and D or L forms follow the SMILES beside them. Ahppa(3S,4S) = O=C(C[C@H](O)[C@H](Cc1ccccc1)N[*:1])[*:2]; dNMeF = CN[C@H](Cc1ccccc1)C(=O)O; NMeQ = CN[C@@H](CCC(N)=O)C(=O)O; Lac = C[C@H](O)C(=O)O
What was measured:
[1] = species: Homo sapiens; experiment: Selectivity ratio of IC50 for BACE1 (unknown origin) to IC50 for human recombinant cathepsin E
[2] = target: Beta-secretase 1 (Homo sapiens, UniProt P56817); experiment: Inhibition of BACE1 (unknown origin) using peptide substrate by time-course measurement-based fluorescence analysis
[3] = species: Homo sapiens; experiment: Selectivity ratio of IC50 for BACE1 (unknown origin) to IC50 for human liver cathepsin D
[4] = target: Cathepsin D (Homo sapiens, UniProt P07339); experiment: Inhibition of human liver cathepsin D using Mca-Gly-Lys-Pro-Ile-Leu-Phe-Phe-Arg-Leu-Lys-(Dnp)-D-Arg-NH2 as substrate preincubated for 15 mins followed by substrate addition measured every 5 mins for 120 mins by fluorescence analysis
[5] = species: Homo sapiens; experiment: Selectivity ratio of IC50 for human liver cathepsin D to IC50 for human recombinant cathepsin E
[6] = target: T1, Cathepsin E (Homo sapiens, UniProt P14091); experiment: Inhibition of human recombinant cathepsin E using Mca-Gly-Lys-Pro-Ile-Leu-Phe-Phe-Arg-Leu-Lys-(Dnp)-D-Arg-NH2 as substrate preincubated for 15 mins followed by substrate addition measured every 5 mins for 120 mins by fluorescence analysis
T1 sequence (P14091 whole entry): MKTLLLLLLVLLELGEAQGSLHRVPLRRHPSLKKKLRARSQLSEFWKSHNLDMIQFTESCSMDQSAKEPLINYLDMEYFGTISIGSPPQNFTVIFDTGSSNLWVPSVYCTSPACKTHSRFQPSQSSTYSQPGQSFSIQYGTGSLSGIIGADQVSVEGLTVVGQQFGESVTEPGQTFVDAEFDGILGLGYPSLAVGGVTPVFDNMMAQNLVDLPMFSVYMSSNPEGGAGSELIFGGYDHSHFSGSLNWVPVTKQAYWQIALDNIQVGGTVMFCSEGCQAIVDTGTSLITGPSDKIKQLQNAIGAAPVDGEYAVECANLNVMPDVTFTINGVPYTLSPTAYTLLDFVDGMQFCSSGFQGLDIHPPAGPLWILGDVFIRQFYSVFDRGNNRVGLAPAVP

Cathepsin D, sequence (P07339 65-162 limits assumed): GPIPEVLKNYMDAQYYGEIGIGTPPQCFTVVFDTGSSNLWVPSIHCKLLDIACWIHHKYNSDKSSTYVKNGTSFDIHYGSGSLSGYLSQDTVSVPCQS
Cathepsin D, sequence (P07339 169-412 limits assumed): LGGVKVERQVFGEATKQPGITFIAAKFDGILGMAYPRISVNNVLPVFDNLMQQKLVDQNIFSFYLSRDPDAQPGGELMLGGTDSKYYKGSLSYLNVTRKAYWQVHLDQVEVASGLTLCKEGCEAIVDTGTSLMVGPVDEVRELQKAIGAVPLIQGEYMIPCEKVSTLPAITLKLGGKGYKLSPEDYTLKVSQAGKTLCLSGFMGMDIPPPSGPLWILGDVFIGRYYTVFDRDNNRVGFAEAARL
Beta-secretase 1, sequence (P56817 whole entry): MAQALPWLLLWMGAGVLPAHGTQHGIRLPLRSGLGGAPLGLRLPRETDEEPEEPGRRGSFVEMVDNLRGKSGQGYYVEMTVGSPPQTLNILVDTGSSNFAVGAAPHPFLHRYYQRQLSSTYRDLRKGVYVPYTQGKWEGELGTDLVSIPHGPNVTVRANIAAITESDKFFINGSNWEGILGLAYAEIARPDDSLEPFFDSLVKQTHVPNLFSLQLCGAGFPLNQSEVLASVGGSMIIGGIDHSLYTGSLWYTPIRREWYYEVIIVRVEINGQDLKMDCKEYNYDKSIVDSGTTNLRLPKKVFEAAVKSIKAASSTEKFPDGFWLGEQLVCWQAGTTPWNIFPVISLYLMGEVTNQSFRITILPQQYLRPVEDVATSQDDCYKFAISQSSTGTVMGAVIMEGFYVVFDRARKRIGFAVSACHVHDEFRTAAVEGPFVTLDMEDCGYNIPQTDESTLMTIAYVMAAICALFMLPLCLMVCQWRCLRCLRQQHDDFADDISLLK

Compound `CC[C@H](C)[C@H](NC(=O)C[C@H](O)[C@H](Cc1ccccc1)NC(=O)[C@H](CCC(N)=O)N(C)C(=O)[C@@H](NC(=O)[C@H](C)O)[C@@H](C)CC)C(=O)NCC(=O)N(C)[C@H](Cc1ccccc1)C(=O)N1CCC[C@H]1C(=O)OC` (H-[Lac]I[NMeQ][Ahppa(3S,4S)]IG[dNMeF]P-OMe) has a Ratio IC50 [1] of 30, an IC50 [2] of 0.69 µM and a Ratio IC50 [3] of 12. The IC50 [4] was 0.057 µM, the Ratio IC50 [5] was 2.4 and the IC50 [6] was 0.023 µM.
